One assay deals with MDA-MB-231. Kind of assay: Growth inhibition of human MDA-MB-231 cells after 7 days by MTS assay. The following applies: MDA-MB-231, 168 h.
In the next assay the test system is LNCaP. The experiment in a line: Growth inhibition of human LNCAP cells after 7 days by MTS assay. The following applies: 168 h.
Assay [1] in a line: Growth inhibition of human FEK4 cells after 7 days by MTS assay. The following applies: FEK4, 168 h. Background: Tetrazolium assays rely on reduction of a dye to a coloured formazan, in cell work by metabolically active cells.
The target of assay [2] is Poly [ADP-ribose] polymerase 2 (Mus musculus, UniProt O88554). The experiment in a line: Inhibition of recombinant full length mouse PARP-2 after 10 mins using [3H]NAD+ by solution-phase assay.
Sequence of Poly [ADP-ribose] polymerase 2 (O88554 whole entry): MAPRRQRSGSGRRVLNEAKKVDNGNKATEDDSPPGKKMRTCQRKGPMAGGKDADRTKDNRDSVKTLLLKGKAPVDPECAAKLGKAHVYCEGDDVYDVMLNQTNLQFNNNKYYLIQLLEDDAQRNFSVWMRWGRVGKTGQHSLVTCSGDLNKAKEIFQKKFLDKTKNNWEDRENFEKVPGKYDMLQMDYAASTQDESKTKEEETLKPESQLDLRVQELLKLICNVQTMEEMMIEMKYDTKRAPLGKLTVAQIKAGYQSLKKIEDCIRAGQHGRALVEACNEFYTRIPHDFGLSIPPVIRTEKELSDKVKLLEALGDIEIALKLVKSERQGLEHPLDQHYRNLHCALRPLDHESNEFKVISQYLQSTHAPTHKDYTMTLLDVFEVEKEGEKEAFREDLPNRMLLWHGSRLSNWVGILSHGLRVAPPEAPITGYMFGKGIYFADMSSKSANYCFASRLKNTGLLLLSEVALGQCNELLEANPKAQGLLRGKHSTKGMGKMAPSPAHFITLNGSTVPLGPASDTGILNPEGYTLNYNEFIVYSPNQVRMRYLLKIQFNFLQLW
A further assay relates to HT-29. The experiment in a line: Growth inhibition of human HT-29 cells after 7 days by MTS assay. The following applies: HT-29, 168 h.
Assay [3] in a line: Selectivity for recombinant full length mouse PARP-2 over full length human PARP-1.
The nature of assay [4]: Selectivity ratio, ratio of IC50 for full length human PARP-1 to IC50 for recombinant full length mouse PARP-2.
In assay [5] the target is Poly [ADP-ribose] polymerase 1 (Homo sapiens, UniProt P09874). The experiment in a line: Inhibition of full length human PARP-1 after 10 mins by FlashPlate scintillation proximity assay. In general terms: Scintillation proximity formats need no separation of bound from free tracer.
Sequence of Poly [ADP-ribose] polymerase 1 (P09874 whole entry): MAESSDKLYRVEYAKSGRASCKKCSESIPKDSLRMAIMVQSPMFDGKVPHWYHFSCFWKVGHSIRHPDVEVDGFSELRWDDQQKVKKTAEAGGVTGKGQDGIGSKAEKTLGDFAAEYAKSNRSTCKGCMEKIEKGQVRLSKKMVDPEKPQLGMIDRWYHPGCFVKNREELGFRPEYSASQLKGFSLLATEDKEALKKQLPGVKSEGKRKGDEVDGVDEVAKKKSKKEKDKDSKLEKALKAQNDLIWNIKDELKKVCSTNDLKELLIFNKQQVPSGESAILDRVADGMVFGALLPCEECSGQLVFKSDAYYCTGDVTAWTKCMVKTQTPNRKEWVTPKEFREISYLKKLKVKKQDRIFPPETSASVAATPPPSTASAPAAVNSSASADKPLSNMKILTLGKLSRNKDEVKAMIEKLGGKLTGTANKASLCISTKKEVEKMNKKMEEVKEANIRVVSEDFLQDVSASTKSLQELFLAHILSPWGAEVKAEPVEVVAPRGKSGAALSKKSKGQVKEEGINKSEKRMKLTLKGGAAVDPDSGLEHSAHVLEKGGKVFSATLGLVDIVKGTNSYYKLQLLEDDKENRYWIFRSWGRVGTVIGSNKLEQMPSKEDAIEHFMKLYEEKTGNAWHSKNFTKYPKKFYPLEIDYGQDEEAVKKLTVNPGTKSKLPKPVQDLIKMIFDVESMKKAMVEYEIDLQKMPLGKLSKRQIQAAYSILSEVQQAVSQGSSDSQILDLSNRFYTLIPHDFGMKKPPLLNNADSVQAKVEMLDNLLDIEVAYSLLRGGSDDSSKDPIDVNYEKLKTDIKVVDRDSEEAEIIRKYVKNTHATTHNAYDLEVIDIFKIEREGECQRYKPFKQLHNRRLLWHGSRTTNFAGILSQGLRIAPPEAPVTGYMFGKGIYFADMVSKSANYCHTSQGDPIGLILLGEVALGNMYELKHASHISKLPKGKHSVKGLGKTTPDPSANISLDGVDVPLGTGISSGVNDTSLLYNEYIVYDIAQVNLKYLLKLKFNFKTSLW
In assay [6] the target is PARP (mixed cellular PARPs). The experiment in a line: Inhibition of mixed PARPs from broken cell nuclei by broken nuclei assay.
Assay [7] deals with PARP (mixed cellular PARPs). Described as above. This is another data set of the same source.
In a further assay the test system is CT26. The experiment in a line: Inhibition of mouse CT26 cell proliferation at 1 mM. It is filed as functional.

“And” between values parts separate entries of the source, which are not always exact repeats. Equal entries are not always repeated.

As usually defined, the IC50 is the midpoint of a concentration-inhibition curve. What is called inhibition is the share of the control response that was lost under treatment. A high value points to a strong effect.

On to `O=C(Nc1cccc2c(=O)[nH]ccc12)c1ccccc1`, for which the IC50 in the assay with MDA-MB-231 was 139 µM; in the assay on LNCaP, 98 µM; in assay [1] it was > 200 µM; in assay [2] it was 1.5 µM; in the assay with HT-29, > 200 µM.

In the case of `O=C(Oc1cccc2c(O)nccc12)c1ccccc1`, the Ratio in assay [3] stood at 60. The Ratio IC50 in [4] was found to be 2.75.

Turning to `O=C(Nc1cccc2c(=O)[nH]ccc12)c1ccc(F)cc1`, the IC50 in [2] turned out to be 3.6 µM.

Turning to `O=C(O)CNc1cccc2c(=O)[nH]ccc12`, in assay [2], the IC50 worked out at 0.55 µM.

As for `Cc1cc2c(NC(=O)c3ccccc3)cccc2c(=O)[nH]1`, in assay [2], the IC50 is 6.3 µM.

On to `O=C(Oc1cccc2c1CCNC2=O)c1ccccc1`, for which, in [3], the Ratio was 16.

For the compound `NC(=O)c1cccc2nc(-c3ccc(Cl)cc3)cnc12`, the IC50 in assay [2] worked out at 0.09 µM.

As for `O=C(O)CCc1cccc2c(=O)[nH]ccc12`, the IC50 in [2] stood at 3 µM.

Turning to `O=C(Nc1cccc2c(=O)[nH]ccc12)C1CCCCC1`, the IC50 is > 200 µM in the assay with MDA-MB-231; > 200 µM with LNCaP; > 200 µM in assay [1]; > 80 µM in assay [5]; 27.9 µM in assay [2]; > 200 µM with HT-29.

In the case of `N#Cc1ccc(-c2cnc3cccc(C(N)=O)c3n2)cc1`, the Ratio in [3] stood at 12.

Consider `O=C(Nc1cccc2c(=O)[nH]ccc12)c1cccs1`, for which the IC50 in assay [2] was 7 µM.

On to `O=C(O)c1cccc2c(=O)[nH]ccc12`, for which the IC50 in assay [6] was < 13 µM; in assay [7], < 13 µM; in assay [5], > 25 µM; in assay [2], > 25 µM.

Take `O=C(O)/C=C/c1cccc2c(=O)[nH]ccc12`: the values for the IC50 in assay [7] and in assay [2] were < 11 µM and 4.7 µM, respectively.

For the compound `O=C(Nc1cccc2c(=O)[nH]ccc12)c1ccc(I)cc1`, the IC50 in assay [2] is 1.3 µM.

For `O=C(Nc1cccc2c(=O)[nH]ccc12)c1ccc([N+](=O)[O-])cc1`, in [2], the IC50 came out at 1.6 µM.

As to `Nc1cccc2c(=O)[nH]ccc12`, the IC50 was 170 µM in the assay with MDA-MB-231; > 200 µM with LNCaP; > 200 µM in assay [1]; 0.94 µM and 1 µM in [5]; 1.05 µM and 1 µM in assay [2]; > 200 µM with HT-29. For the same compound, the Ratio IC50 in assay [4] is 0.9. The compound further had an inhibition at 1000 µM with CT26 of 40%.

Take `O=C(Nc1cccc2c(=O)[nH]ccc12)c1ccccc1I`: the IC50 in assay [2] worked out at 3.2 µM.

For the compound `O=c1[nH]c(CCCCN2CC=C(c3ccc(F)cc3)CC2)nc2c(Cl)cccc12`, in [2], the IC50 was determined as 0.5 µM.

`O=C(Nc1cccc2c(=O)[nH]ccc12)c1ccc(C(F)(F)F)cc1`: the IC50 in assay [2] was found to be 3.3 µM.

Regarding `Cc1ccc(C(=O)Nc2cccc3c(=O)[nH]ccc23)cc1`, the half-maximal inhibitory concentration (IC50) in assay [2] was 6.5 µM.

Regarding `Nc1cccc2c(=O)n(CCC(=O)O)ccc12`, the IC50 in assay [2] is 1.6 µM.

In the case of `Cc1ccccc1C(=O)Nc1cccc2c(=O)[nH]ccc12`, the IC50 in assay [2] was found to be 5.6 µM.

Consider `CC(C)(C)C(=O)Nc1cccc2c(=O)[nH]ccc12`, for which the 50% inhibitory concentration (IC50) with MDA-MB-231 is > 200 µM; with LNCaP it was > 200 µM; in assay [1], > 200 µM; in [5] it was > 100 µM; in assay [2], 29 µM; with HT-29, > 200 µM. In addition, the Ratio IC50 in [4] is > 3.4.

In the case of `O=C(Oc1cccc2c(=O)[nH]ccc12)c1ccccc1`, the results for the IC50 in [5] and in [2] were 4.1 µM and 1.5 µM, respectively.

Take `O=C(Nc1cccc2c(=O)[nH]ccc12)C12CC3CC(CC(C3)C1)C2`: the IC50 with MDA-MB-231 was > 200 µM; in the assay with LNCaP, 42 µM; in [1], > 200 µM; in assay [5], > 50 µM; in [2] it was 19.9 µM; in the assay with HT-29, > 200 µM.

`O=C(Nc1cccc2c(=O)[nH]ccc12)c1ccc(Cl)cc1`: in assay [2], the IC50 was determined as 3.9 µM.

The values above are taken from ChEMBL document CHEMBL1765088, “5-Benzamidoisoquinolin-1-ones and 5-(ω-carboxyalkyl)isoquinolin-1-ones as isoform-selective inhibitors of poly(ADP-ribose) polymerase 2 (PARP-2)” (J Med Chem, 2011).
